Data from paper PMC10600239, “Selective MCL-1 inhibitor ABBV-467 is efficacious in tumor models but is associated with cardiac troponin increases in patients” (Communications Medicine, 2023).
Values joined by “and” are separate entries in the source; they are usually repeats but may differ in a detail not shown here. Equal entries are not always repeated.

Test system: AMO-1 xenografts
Assay: AMO-1 xenograft efficacy (tumor volume, body weight)
Format: in vivo, mouse
Conditions: for % Weight Change (individual weights) / Weight, g (individual weights): individual animal, Day 21; for Xenograft AMO-1 (DSMZ) (mm³) Day 16 / Xenograft AMO-1 (DSMZ) (mm³) Day 19: tumor volume
Description: All animal studies were conducted in accordance with the guidelines approved by the Institutional Animal Care and Use Committees of AbbVie. The research protocol was approved by In Vivo Pharmacology at AbbVie prior to study initiation but was not publicly registered or disclosed. Female C.B-17 SCID-beige mice (AMO-1, OPM-2, NCI-H929, and OCI-AML2 xenografts) and female NSG mice (MV4-11-Red.Fluc systemic) were purchased from Charles River Laboratories (Wilmington, MA). Animals were housed in a light cycle-controlled room with HEPA filtration at 22 °C. Animals had nesting and climbing cage topper as the primary environmental enrichment. Animals were inoculated subcutaneously in the right flank with 5 × 10^6 (AMO-1, OPM-2, NCI-H929, and OCI-AML2) or intravenous (IV) with 5 × 10^6 (MV4-11-Red.Fluc). The inoculation volume (0.2 mL) comprised a 50:50 mixture of cells in growth media and Matrigel (BD Biosciences) for subcutaneous injections and 100% phosphate-buffered saline for IV administration. All cell lines used in this publication were authenticated using IDEXX for STR profiling as well as their IMPACT and human IMPACT panels for pathogen screening. Electronic calipers were used to measure the length and width of each tumor 2 to 3 times per week. Tumor volume was estimated by applying the following equation: volume = length × width^2/2. All groups remained blinded during measurements and dosing; only veterinary staff were aware of group identity. When tumors reached approximately 200 mm^3, mice were randomized by match and distributed into treatment and control groups. All xenograft trials were conducted using 5 to 10 mice per group, and all mice were ear tagged and monitored individually throughout the studies. […] Tumor burden in the systemic MV4-11-Red.Fluc experiment was measured using an IVIS® spectrum from PerkinElmer by taking the total photon flux of the entire dorsal side of an individual mouse. […] A background control mouse that was tumor naive but received D-Luciferin was placed in the upper left corner of each image. The total flux from this animal was subtracted from the total flux of each animal present in the image.
For in vivo studies, maximal tumor growth inhibition (TGI) was calculated as the greatest treatment response using the following equation: Maximal TGI = (1 − mean tumor volume of the treated group/mean tumor volume of the vehicle control group) × 100. The tumor growth delay (TGD) percentage was determined as the percentage increase of the median time period for the treatment group to reach an arbitrary tumor volume of 1000 mm^3 relative to the vehicle control group. […] A power analysis was conducted using historical data to determine the number of animals required to yield significance of 0.05 at a 30% difference. […] Data from experiments in vivo were analyzed using the student’s t-test for TGI values and the Mann–Whitney U test for TGD using Excel and GraphPad Prism. Fisher’s exact test was used to probe significance of differences in response frequency.

[1] = 25 mg/kg, Q7Dx2, IV, SCID-beige female mice, Day 91
[2] = Day 14, 6.25 mg/kg Q7Dx2 IV, control Group 01
[3] = Day 14, 25 mg/kg Q7Dx2 IV, control Group 01
[4] = Day 80, 25 mg/kg Q7Dx2 IV, SCID-beige female mice
[5] = Day 82, 25 mg/kg Q7Dx2 IV, SCID-beige female mice
[6] = SCID-beige female mice, 25 mg/kg Q7Dx2 IV, Day 47, remaining animals
[7] = SCID-beige female mice, 25 mg/kg Q7Dx2 IV, Day 75
[8] = SCID-beige female mice, 25 mg/kg Q7Dx2 IV, Day 88, surviving animals
[9] = control Group 01, 6.25 mg/kg Q7Dx2 IV
[10] = control Group 01, 25 mg/kg Q7Dx2 IV

SMILES: Cc1c(Cl)c2c(Cl)c(C)c1-c1c(-c3ccc(F)cc3)sc3ncnc(c13)O[C@@H](C(=O)O)Cc1cc(ccc1OCc1ccnc(-c3ccc(OC[C@H]4COCCO4)cc3)n1)OC[C@@H](CN1CCN(C)CC1)O2 [Compound A-1747745.0]
- Xenograft AMO-1 (DSMZ) tumor volume Day 91, Mean [1]: 22.37 mm³
- Xenograft AMO-1 (DSMZ) tumor volume Day 91, Median [1]: 22.37 mm³
- Xenograft AMO-1 (DSMZ) tumor volume Day 91, individual animal [1]: 22 mm³
- % Mortality (AMO-1 (DSMZ) xenograft, SCID-beige mouse, 6.25 mg/kg IV Q7Dx2): 100.00%
- % Mortality (AMO-1 (DSMZ) xenograft, SCID-beige mouse, 25 mg/kg IV Q7Dx2): 100.00%
- % BW Loss (AMO-1 (DSMZ) xenograft, SCID-beige mouse, 25 mg/kg IV Q7Dx2, day 21): -2% (day 21)
- Body Weight Day 14, % T/C (mean) [2]: 96.25%
- Body Weight Day 14, % T/C (median) [2]: 96.25%
- Body Weight Day 14, % T/C (mean) [3]: 98.12%
- Body Weight Day 14, % T/C (median) [3]: 98.12%
- Xenograft AMO-1 (DSMZ) tumor volume, Mean [4]: 10.80 mm³
- Xenograft AMO-1 (DSMZ) tumor volume, Median [4]: 10.80 mm³
- Xenograft AMO-1 (DSMZ) tumor volume, individual animal [4]: 11 mm³
- Xenograft AMO-1 (DSMZ) tumor volume, Mean [5]: 12.07 mm³
- Xenograft AMO-1 (DSMZ) tumor volume, Median [5]: 12.07 mm³
- Xenograft AMO-1 (DSMZ) tumor volume, individual animal [5]: 12 mm³
- Xenograft AMO-1 (DSMZ) tumor volume Day 47 (individual animal) (SCID-beige female mice, 25 mg/kg Q7Dx2 IV, Day 47): 8 mm³
- Xenograft AMO-1 (DSMZ) tumor volume Day 47, Mean [6]: 8.10 mm³
- Xenograft AMO-1 (DSMZ) tumor volume Day 47, Median [6]: 8.10 mm³
- Xenograft AMO-1 (DSMZ) Day 75 tumor volume, Mean [7]: 13.50 mm³
- Xenograft AMO-1 (DSMZ) Day 75 tumor volume, Median [7]: 13.50 mm³
- Xenograft AMO-1 (DSMZ) Day 75 tumor volume, individual animals [7]: 14 mm³
- Xenograft AMO-1 (DSMZ) Day 88 (tumor volume, individual animals) (SCID-beige female mice, 25 mg/kg Q7Dx2 IV, Day 88): 15 mm³
- Xenograft AMO-1 (DSMZ) Day 88, Mean [8]: 14.75 mm³
- Xenograft AMO-1 (DSMZ) Day 88, Median [8]: 14.75 mm³
- Xenograft AMO-1 (DSMZ) (mm³) Day 84, Mean (group mean tumor volume of remaining animals, SCID-beige female mice, 25 mg/kg Q7Dx2 IV, Day 84): 5.32 mm³
- Xenograft AMO-1 (DSMZ) (mm³) Day 16 Mean (group mean, Day 16, 3.13 mg/kg QDx1 IV): 205.11 mm³
- Xenograft AMO-1 (DSMZ) (mm³) Day 16 Mean (group mean, Day 16, 6.25 mg/kg QDx1 IV): 172.06 mm³
- Xenograft AMO-1 (DSMZ) (mm³) Day 19 Mean (group mean, Day 19, 3.13 mg/kg QDx1 IV): 192.25 mm³
- Xenograft AMO-1 (DSMZ) (mm³) Day 19 Mean (group mean, Day 19, 6.25 mg/kg QDx1 IV): 133.62 mm³
- Xenograft AMO-1 (DSMZ) (mm³) Day 70, Mean (group mean, 25 mg/kg Q7Dx2 IV, SCID-beige mice, Day 70): 24.72 mm³
- Xenograft AMO-1 (DSMZ) (mm³) Day 84, Median (group median tumor volume of remaining animals, SCID-beige female mice, 25 mg/kg Q7Dx2 IV, Day 84): 5.32 mm³
- Xenograft AMO-1 (DSMZ) (mm³) Day 16 Median (group median, Day 16, 3.13 mg/kg QDx1 IV): 207.59 mm³
- Xenograft AMO-1 (DSMZ) (mm³) Day 16 Median (group median, Day 16, 6.25 mg/kg QDx1 IV): 173.79 mm³
- Xenograft AMO-1 (DSMZ) (mm³) Day 19 Median (group median, Day 19, 3.13 mg/kg QDx1 IV): 202.67 mm³
- Xenograft AMO-1 (DSMZ) (mm³) Day 19 Median (group median, Day 19, 6.25 mg/kg QDx1 IV): 134.81 mm³
- Xenograft AMO-1 (DSMZ) (mm³) Day 70, Median (group median, 25 mg/kg Q7Dx2 IV, SCID-beige mice, Day 70): 24.72 mm³
- Xenograft AMO-1 (DSMZ) (mm³) Day 84 (individual animal tumor volume, SCID-beige female mice, 25 mg/kg Q7Dx2 IV, Day 84): 5.32 mm³
- % Weight Change (individual weights) (6.25 mg/kg IV Q7Dx2): 0.65%
- Weight, g (individual weights) (6.25 mg/kg IV Q7Dx2): 22.14 g
- % Weight Change (individual weights) (25 mg/kg IV Q7Dx2): -1.91%
- Weight, g (individual weights) (25 mg/kg IV Q7Dx2): 22.00 g
- Body Weight (g) Day 14 (individual animals, Day 14, 3.13 mg/kg QDx1 IV): 22 g
- Body Weight (g) Day 14 (individual animals, Day 14, 6.25 mg/kg QDx1 IV): 22 g
- Xenograft AMO-1 (DSMZ) (mm³) Day 70 (individual animals, 25 mg/kg Q7Dx2 IV, SCID-beige mice, Day 70): 25 mm³
- Body Weight Day 14, % T/C (mean) (Day 14, 3.13 mg/kg QDx1 IV): 102.98%
- Body Weight Day 14, % T/C (mean) (Day 14, 6.25 mg/kg QDx1 IV): 102.98%
- Xenograft AMO-1 Day 16 % T/C (mean) (Day 16, 3.13 mg/kg QDx1 IV): 61.23%
- Xenograft AMO-1 Day 16 % T/C (mean) (Day 16, 6.25 mg/kg QDx1 IV): 51.36%
- Xenograft AMO-1 Day 19 % T/C (mean) (Day 19, 3.13 mg/kg QDx1 IV): 44.28%
- Xenograft AMO-1 Day 19 % T/C (mean) (Day 19, 6.25 mg/kg QDx1 IV): 30.78%
- % T/C (mean), Body Weight Day 21 [9]: 96.87%
- % T/C (mean), Body Weight Day 21 [10]: 96.25%
- Body Weight Day 14, % T/C (median) (Day 14, 3.13 mg/kg QDx1 IV): 102.98%
- Body Weight Day 14, % T/C (median) (Day 14, 6.25 mg/kg QDx1 IV): 102.98%
- Xenograft AMO-1 Day 16 % T/C (median) (Day 16, 3.13 mg/kg QDx1 IV): 62.33%
- Xenograft AMO-1 Day 16 % T/C (median) (Day 16, 6.25 mg/kg QDx1 IV): 52.18%
- Xenograft AMO-1 Day 19 % T/C (median) (Day 19, 3.13 mg/kg QDx1 IV): 51.55%
- Xenograft AMO-1 Day 19 % T/C (median) (Day 19, 6.25 mg/kg QDx1 IV): 34.29%
- % T/C (median), Body Weight Day 21 [9]: 96.87%
- % T/C (median), Body Weight Day 21 [10]: 96.25%
- Relative to initial body wt., % (mouse, in vivo, iv, 3.13 mg/kg): 0.00%
- Body Weight (g) Day 14 (individual animals) (mouse, in vivo, iv, 6.25 mg/kg): 22 g
- Body Weight (g) Day 14, Mean (mouse, in vivo, iv, 6.25 mg/kg): 22.00 g
- Body Weight (g) Day 14, Median (mouse, in vivo, iv, 6.25 mg/kg): 22.00 g
- Body Weight (g) Day 21 (mouse, in vivo, iv, 6.25 mg/kg): 22 g
- Body Weight (g) Day 21 Mean (mouse, in vivo, iv, 6.25 mg/kg): 22.14 g
- Body Weight (g) Day 21 Median (mouse, in vivo, iv, 6.25 mg/kg): 22.14 g
- Body Weight (g) Day 14 (individual animals) (mouse, in vivo, iv, 25 mg/kg): 22 g
- Body Weight (g) Day 14, Mean (mouse, in vivo, iv, 25 mg/kg): 22.43 g
- Body Weight (g) Day 14, Median (mouse, in vivo, iv, 25 mg/kg): 22.43 g
- Body Weight (g) Day 21 (mouse, in vivo, iv, 25 mg/kg): 22 g
- Body Weight (g) Day 21 Mean (mouse, in vivo, iv, 25 mg/kg): 22.00 g
- Body Weight (g) Day 21 Median (mouse, in vivo, iv, 25 mg/kg): 22.00 g
- Xenograft AMO-1 (DSMZ) (mm³) Day 16 (individual animals, Day 16, 3.13 mg/kg QDx1 IV): 195 mm³ and 171 mm³ and 227 mm³ and 217 mm³ and 219 mm³ and 212 mm³ and 203 mm³ and 196 mm³
- Xenograft AMO-1 (DSMZ) (mm³) Day 16 (individual animals, Day 16, 6.25 mg/kg QDx1 IV): 158 mm³ and 174 mm³ (2×) and 187 mm³ and 182 mm³ and 167 mm³ and 173 mm³ and 160 mm³
- Xenograft AMO-1 (DSMZ) (mm³) Day 19 (individual animals, Day 19, 3.13 mg/kg QDx1 IV): 210 mm³ and 196 mm³ and 181 mm³ and 173 mm³ and 128 mm³ and 213 mm³ and 209 mm³ and 227 mm³
- Xenograft AMO-1 (DSMZ) (mm³) Day 19 (individual animals, Day 19, 6.25 mg/kg QDx1 IV): 142 mm³ and 122 mm³ and 113 mm³ and 105 mm³ and 128 mm³ and 144 mm³ and 162 mm³ and 152 mm³
